From patent US20260070899A1, “N-(2-(4-CYANOTHIAZOLIDIN-3-YL)-2-OXOETHYL)-QUINOLINE-4-CARBOXAMIDES” (AstraZeneca AB, priority 2022, published 2026)

Legend:
[1] = molecular target: T1, Prolyl endopeptidase, Prolyl Oligopeptidase (hPREP) (Homo sapiens, UniProt P48147); test: biochemical
T1 sequence (P48147 1-710): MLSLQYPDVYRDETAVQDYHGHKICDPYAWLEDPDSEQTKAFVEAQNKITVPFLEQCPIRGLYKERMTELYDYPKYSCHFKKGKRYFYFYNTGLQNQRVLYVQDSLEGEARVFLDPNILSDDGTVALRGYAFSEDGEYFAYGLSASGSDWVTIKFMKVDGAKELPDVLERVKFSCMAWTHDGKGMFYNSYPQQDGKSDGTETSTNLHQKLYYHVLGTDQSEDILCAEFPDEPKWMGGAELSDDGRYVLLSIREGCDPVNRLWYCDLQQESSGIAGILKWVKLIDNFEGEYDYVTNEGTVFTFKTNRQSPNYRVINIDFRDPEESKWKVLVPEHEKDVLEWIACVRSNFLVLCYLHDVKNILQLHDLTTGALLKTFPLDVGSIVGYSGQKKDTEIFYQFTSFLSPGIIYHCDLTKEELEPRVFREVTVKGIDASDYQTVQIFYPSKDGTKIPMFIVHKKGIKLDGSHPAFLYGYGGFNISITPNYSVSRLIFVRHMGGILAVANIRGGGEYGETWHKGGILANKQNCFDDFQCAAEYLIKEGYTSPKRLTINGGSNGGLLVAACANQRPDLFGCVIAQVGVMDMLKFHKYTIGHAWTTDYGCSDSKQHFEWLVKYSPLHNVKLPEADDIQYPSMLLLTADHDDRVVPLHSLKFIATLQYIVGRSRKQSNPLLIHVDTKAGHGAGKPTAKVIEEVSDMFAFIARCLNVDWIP

hFAP (M39-A757) = molecular target: T2, hFAP (M39-A757) (Homo sapiens, UniProt Q12884); test: biochemical;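 further: surface plasmon resonance direct binding to hFAP amine-coupled on a sensor chip, rising compound concentrations by single cycle kinetics, Kd from global fit of interaction models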
T2 sequence (Q12884 39-757): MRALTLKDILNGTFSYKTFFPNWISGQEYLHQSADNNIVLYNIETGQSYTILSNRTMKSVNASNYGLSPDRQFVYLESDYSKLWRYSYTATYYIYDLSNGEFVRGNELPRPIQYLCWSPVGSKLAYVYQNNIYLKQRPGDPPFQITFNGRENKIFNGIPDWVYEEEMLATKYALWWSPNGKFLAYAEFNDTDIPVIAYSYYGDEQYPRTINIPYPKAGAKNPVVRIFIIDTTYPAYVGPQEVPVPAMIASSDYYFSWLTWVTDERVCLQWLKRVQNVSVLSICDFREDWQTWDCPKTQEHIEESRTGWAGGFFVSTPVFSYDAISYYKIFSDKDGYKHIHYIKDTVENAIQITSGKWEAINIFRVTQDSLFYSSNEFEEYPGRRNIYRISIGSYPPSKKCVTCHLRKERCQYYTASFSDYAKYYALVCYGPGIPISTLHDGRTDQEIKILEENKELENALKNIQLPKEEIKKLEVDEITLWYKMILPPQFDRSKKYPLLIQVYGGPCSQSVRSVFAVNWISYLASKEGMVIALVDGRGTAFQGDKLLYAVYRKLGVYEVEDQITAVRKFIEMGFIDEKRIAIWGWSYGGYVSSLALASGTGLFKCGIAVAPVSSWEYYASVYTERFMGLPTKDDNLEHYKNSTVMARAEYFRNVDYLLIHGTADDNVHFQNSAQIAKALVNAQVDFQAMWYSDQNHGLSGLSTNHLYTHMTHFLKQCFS
Experimental: Compounds were tested in a direct binding assay using 8K surface plasmon resonance biosensor (GE Healthcare) at 20° C. Immobilization of hFAP (M39-A757) on a CMD200M sensor chip (Xantec) was performed using standard amine coupling procedure in immobilization buffer (10 mM HEPES, 150 mM NaCl, 0.05% Tween20, pH 7.4). The surface was washed with 10 mM aq NaOH, 1M NaCl before being activated with EDC/NHS (GE Healthcare), followed by immobilization of hFAP (in 10 mM Acetate pH 5.0). Finally, the surface was deactivated by ethanolamine. Immobilization levels of hFAP were around 4000-6000 RU. The reference spot was treated as described, omitting the injection of hFAP. Compound concentration series were injected over the immobilized protein in increasing concentrations (2-500 nM) using single cycle kinetics in running buffer (20 mM TRIS, 150 mM NaCl, 0.05% Tween20, 1% DMSO, pH 7.4). Interaction models were fitted globally to the experimental traces, enabling determination of kon, koff and Kd.

SMILES: N#C[C@@H]1CSCN1C(=O)CNC(=O)c1ccnc2ccc(OCC3CC3)cc12 [Example 5, (R)—N-(2-(4-Cyanothiazolidin-3-yl)-2-oxoethyl)-6-(cyclopropyl-methoxy)quinoline-4-carboxamide]
- IC50 [1]: 400 nM

SMILES: N#C[C@@H]1CSCN1C(=O)CNC(=O)c1ccnc2ccc(C3(c4ncccc4F)CC3)cc12 [Example 44, (R)—N-(2-(4-Cyanothiazolidin-3-yl)-2-oxoethyl)-6-(1-(3-fluoropyridin-2-yl)cyclopropyl)quinoline-4-carboxamide]
- IC50 [1]: 65 nM
- Kd (hFAP (M39-A757)): 0.14 nM

SMILES: N#C[C@@H]1CSCN1C(=O)CNC(=O)c1ccnc2ccc(C3(F)CCOCC3)cc12 [Example 64, (R)—N-(2-(4-Cyanothiazolidin-3-yl)-2-oxoethyl)-6-(4-fluorotetrahydro-2H-pyran-4-yl)quinoline-4-carboxamide]
- IC50 [1]: 300 nM
- Kd (hFAP (M39-A757)): 0.042 nM

SMILES: N#C[C@@H]1CSCN1C(=O)CNC(=O)c1ccnc2ccc(Cn3cccn3)cc12 [Example 80, (R)-6-((1H-Pyrazol-1-yl)methyl)-N-(2-(4-cyanothiazolidin-3-yl)-2-oxoethyl)quinoline-4-carboxamide]
- IC50 [1]: 290 nM
- Kd (hFAP (M39-A757)): 0.3 nM

SMILES: COCCOCc1ccc2nccc(C(=O)NCC(=O)N3CSC[C@H]3C#N)c2c1 [Example 31, (R)—N-(2-(4-Cyanothiazolidin-3-yl)-2-oxoethyl)-6-((2-methoxyethoxy)-methyl)quinoline-4-carboxamide]
- IC50 [1]: 910 nM
- Kd (hFAP (M39-A757)): 0.4 nM

SMILES: COCCCc1ccc2nccc(C(=O)NCC(=O)N3CSC[C@H]3C#N)c2c1 [Example 81, (R)—N-(2-(4-cyanothiazolidin-3-yl)-2-oxoethyl)-6-(3-methoxypropyl)quinoline-4-carboxamide]
- IC50 [1]: 62 nM

SMILES: COCCc1ccc2nccc(C(=O)NCC(=O)N3CSC[C@H]3C#N)c2c1 [Example 82, (R)—N-(2-(4-cyanothiazolidin-3-yl)-2-oxoethyl)-6-(2-methoxyethyl)quinoline-4-carboxamide]
- IC50 [1]: 48 nM

SMILES: CO[C@H]1CC[C@@H](c2ccc3nccc(C(=O)NCC(=O)N4CSC[C@H]4C#N)c3c2)CC1 (single isomer, unassigned) [Example 79, N-(2-((R)-4-Cyanothiazolidin-3-yl)-2-oxoethyl)-6-((1r,4R*)-4-methoxycyclohexyl)quinoline-4-carboxamide]
- IC50 [1]: 610 nM

SMILES: N#C[C@@H]1CSCN1C(=O)CNC(=O)c1ccnc2ccc(COC3CCOC3)cc12 (mixture of isomers) [Example 35, N-(2-((R)-4-Cyanothiazolidin-3-yl)-2-oxoethyl)-6-((((RS)-tetrahydrofuran-3-yl)oxy)methyl)quinoline-4-carboxamide]
- IC50 [1]: 460 nM

SMILES: CC1(C)CC(Oc2ccc3nccc(C(=O)NCC(=O)N4CSC[C@H]4C#N)c3c2)CCO1 (mixture of isomers) [Example 9, N-(2-((R)-4-Cyanothiazolidin-3-yl)-2-oxoethyl)-6-(((RS)-2,2-dimethyltetrahydro-2H-pyran-4-yl)oxy)quinoline-4-carboxamide]
- IC50 [1]: 870 nM

SMILES: CO[C@H]1C[C@](F)(c2ccc3nccc(C(=O)NCC(=O)N4CSC[C@H]4C#N)c3c2)C1 (single isomer, unassigned) [Example 62, N-(2-((R)-4-Cyanothiazolidin-3-yl)-2-oxoethyl)-6-((1r,3R*)-1-fluoro-3-methoxycyclobutyl)quinoline-4-carboxamide]
- IC50 [1]: 520 nM
- Kd (hFAP (M39-A757)): 0.11 nM

SMILES: N#C[C@@H]1CSCN1C(=O)CNC(=O)c1ccnc2ccc(CN3CCOCC3)cc12 [Example 24, (R)—N-(2-(4-Cyanothiazolidin-3-yl)-2-oxoethyl)-6-(morpholino-methyl)quinoline-4-carboxamide]
- IC50 [1]: 1000 nM
- Kd (hFAP (M39-A757)): 0.33 nM

SMILES: Cc1cc(C2(c3ccc4nccc(C(=O)NCC(=O)N5CSC[C@H]5C#N)c4c3)CC2)on1 [Example 50, (R)—N-(2-(4-Cyanothiazolidin-3-yl)-2-oxoethyl)-6-(1-(3-methylisoxazol-5-yl)cyclopropyl)quinoline-4-carboxamide]
- IC50 [1]: 130 nM

SMILES: N#C[C@@H]1CSCN1C(=O)CNC(=O)c1ccnc2ccc([C@H]3CC[C@H](C#N)CC3)cc12 (single isomer, unassigned) [Example 55, 6-((1r,4R*)-4-Cyanocyclohexyl)-N-(2-((R)-4-cyanothiazolidin-3-yl)-2-oxoethyl)quinoline-4-carboxamide]
- IC50 [1]: 330 nM

SMILES: N#C[C@@H]1CSCN1C(=O)CNC(=O)c1ccnc2ccc([C@H]3CC[C@H](C#N)CC3)cc12 (single isomer, unassigned) [Example 54, 6-((1r,4R*)-4-Cyanocyclohexyl)-N-(2-((R)-4-cyanothiazolidin-3-yl)-2-oxoethyl)quinoline-4-carboxamide]
- IC50 [1]: 620 nM

SMILES: N#C[C@@H]1CSCN1C(=O)CNC(=O)c1ccnc2ccc(OCCF)cc12 [Example 74, (R)—N-(2-(4-Cyanothiazolidin-3-yl)-2-oxoethyl)-6-(2-fluoroethoxy)-quinoline-4-carboxamide]
- IC50 [1]: 83 nM

SMILES: N#C[C@@H]1CSCN1C(=O)CNC(=O)c1ccnc2ccc(COC3CC3)cc12 [Example 37, (R)—N-(2-(4-Cyanothiazolidin-3-yl)-2-oxoethyl)-6-(cyclopropoxy-methyl)quinoline-4-carboxamide]
- IC50 [1]: 170 nM

SMILES: CCCOc1ccc2nccc(C(=O)NCC(=O)N3CSC[C@H]3C#N)c2c1 [Example 73, (R)—N-(2-(4-Cyanothiazolidin-3-yl)-2-oxoethyl)-6-propoxyquinoline-4-carboxamide]
- IC50 [1]: 160 nM

SMILES: N#C[C@@H]1CSCN1C(=O)CNC(=O)c1ccnc2ccc(CC3CCOCC3)cc12 [Example 56, (R)—N-(2-(4-Cyanothiazolidin-3-yl)-2-oxoethyl)-6-((tetrahydro-2H-pyran-4-yl)methyl)quinoline-4-carboxamide]
- IC50 [1]: 500 nM

SMILES: CC(F)(F)COc1ccc2nccc(C(=O)NCC(=O)N3CSC[C@H]3C#N)c2c1 [Example 11, (R)—N-(2-(4-Cyanothiazolidin-3-yl)-2-oxoethyl)-6-(2,2-difluoropropoxy)quinoline-4-carboxamide]
- IC50 [1]: 290 nM

SMILES: C#CC1(c2ccc3nccc(C(=O)NCC(=O)N4CSC[C@H]4C#N)c3c2)CCOCC1 [Example 57, (R)—N-(2-(4-Cyanothiazolidin-3-yl)-2-oxoethyl)-6-(4-ethynyl-tetrahydro-2H-pyran-4-yl)quinoline-4-carboxamide]
- IC50 [1]: 790 nM

SMILES: CCOCc1ccc2nccc(C(=O)NCC(=O)N3CSC[C@H]3C#N)c2c1 [Example 27, (R)—N-(2-(4-cyanothiazolidin-3-yl)-2-oxoethyl)-6-(ethoxymethyl)-quinoline-4-carboxamide]
- IC50 [1]: 140 nM

SMILES: N#C[C@@H]1CSCN1C(=O)CNC(=O)c1ccnc2ccc(COCC(F)F)cc12 [Example 36, (R)—N-(2-(4-Cyanothiazolidin-3-yl)-2-oxoethyl)-6-((2,2-difluoroethoxy)methyl)quinoline-4-carboxamide]
- IC50 [1]: 170 nM

SMILES: N#CCOc1ccc2nccc(C(=O)NCC(=O)N3CSC[C@H]3C#N)c2c1 [Example 10, (R)-6-(Cyanomethoxy)-N-(2-(4-cyanothiazolidin-3-yl)-2-oxoethyl)quinoline-4-carboxamide]
- IC50 [1]: 32 nM

SMILES: N#C[C@@H]1CSCN1C(=O)CNC(=O)c1ccnc2ccc(C3(F)CCC3)cc12 [Example 75, (R)—N-(2-(4-Cyanothiazolidin-3-yl)-2-oxoethyl)-6-(1-fluoro-cyclobutyl)quinoline-4-carboxamide]
- IC50 [1]: 46 nM
